Reference: PubChem BioAssay (NCI)
“And” between values parts separate entries of the source, which are not always exact repeats. Equal values may be shown once.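 Cultured in 96-well plates, cells were exposed to test compound for 48 hours across five concentrations. GI50 = concentration required for 50% inhibition of growth. TGI: total growth inhibition.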

Experiments:
Assay in all cases: growth of human tumour cells (NCI), 48 h
UACC-257 melanoma = test system: UACC-257 melanoma
NCI-H23 lung = test system: NCI-H23 lung
HOP-92 NSCLC = test system: HOP-92 NSCLC
NCI-H226 lung = test system: NCI-H226 lung
BT-549 breast = test system: BT-549 breast
SW-620 colon = test system: SW-620 colon
PC-3 prostate = test system: PC-3 prostate
SF-539 CNS = test system: SF-539 CNS
NCI-H460 lung = test system: NCI-H460 lung
A498 renal = test system: A498 renal
OVCAR-8 ovarian = test system: OVCAR-8 ovarian
OVCAR-4 ovarian = test system: OVCAR-4 ovarian
UO-31 renal = test system: UO-31 renal
DU-145 prostate = test system: DU-145 prostate
MDA-MB-435 = test system: MDA-MB-435
CAKI-1 renal = test system: CAKI-1 renal
UACC-62 melanoma = test system: UACC-62 melanoma
SNB-75 CNS = test system: SNB-75 CNS
SK-OV-3 ovarian = test system: SK-OV-3 ovarian
A549 NSCLC = test system: A549 NSCLC
RXF 393 renal = test system: RXF 393 renal
U251 CNS = test system: U251 CNS
SK-MEL-5 melanoma = test system: SK-MEL-5 melanoma
SN12C renal = test system: SN12C renal
HT29 colon = test system: HT29 colon
KM12 colon = test system: KM12 colon
IGROV1 ovarian = test system: IGROV1 ovarian
ACHN renal = test system: ACHN renal
MDA-MB-231 breast = test system: MDA-MB-231 breast
SNB-19 CNS = test system: SNB-19 CNS
SF-268 CNS = test system: SF-268 CNS
OVCAR-5 ovarian = test system: OVCAR-5 ovarian
HCT-15 colon = test system: HCT-15 colon
NCI/ADR-RES ovarian = test system: NCI/ADR-RES ovarian
SF-295 CNS = test system: SF-295 CNS
COLO 205 colon = test system: COLO 205 colon
M14 melanoma = test system: M14 melanoma
SK-MEL-28 melanoma = test system: SK-MEL-28 melanoma
EKVX NSCLC = test system: EKVX NSCLC
TK-10 renal = test system: TK-10 renal
OVCAR-3 ovarian = test system: OVCAR-3 ovarian
HCT-116 colon = test system: HCT-116 colon
HCC-2998 colon = test system: HCC-2998 colon
MALME-3M melanoma = test system: MALME-3M melanoma
RPMI-8226 leukemia = test system: RPMI-8226 leukemia
786-0 renal = test system: 786-0 renal
NCI-H522 lung = test system: NCI-H522 lung
CCRF-CEM leukemia = test system: CCRF-CEM leukemia
SK-MEL-2 melanoma = test system: SK-MEL-2 melanoma
HL-60(TB) leukemia = test system: HL-60(TB) leukemia

In the case of `COc1ccc(CC2C(=O)NC(C)C(=O)N(C)C3C(=O)N(C)C(Cc4ccc(O)c(c4)Oc4ccc(cc4)C3O)C(=O)NC(C)C(=O)NC(C)C(=O)N2C)cc1` (centres undefined) (tested in a mixture with another compound), the TGI (UACC-257 melanoma) is reported as 101 nM and 27.8 nM, the TGI (NCI-H23 lung) is reported as 51 nM and the TGI (HOP-92 NSCLC) is reported as 37.2 nM. It also gave a TGI (NCI-H226 lung) of 117 nM and a TGI (BT-549 breast) of 9.92 nM.
`C=C(CNCCc1ccc(O)cc1)[C@@H]1CC[C@]2(CO)CC[C@]3(C)[C@H](CC[C@@H]4[C@@]5(C)CCC(NCCc6ccc(O)cc6)C(C)(C)[C@@H]5CC[C@]43C)[C@@H]12` (some centres undefined) showed a GI50 (SW-620 colon) of 178 nM, a TGI (SW-620 colon) of 352 nM and a GI50 (PC-3 prostate) of 884 nM. It also gave a TGI (PC-3 prostate) of 2350 nM, a GI50 (SF-539 CNS) of 1310 nM and a TGI (SF-539 CNS) of 2600 nM. The GI50 (NCI-H460 lung) was 191 nM, the TGI (NCI-H460 lung) was 362 nM and the GI50 (A498 renal) was 1400 nM. The TGI (A498 renal) was 2860 nM, the GI50 (OVCAR-8 ovarian) was 1610 nM and the TGI (OVCAR-8 ovarian) was 4270 nM. For the same molecule, the GI50 (OVCAR-4 ovarian) was 1350 nM, the TGI (OVCAR-4 ovarian) was 2700 nM and the GI50 (HOP-92 NSCLC) was 667 nM. The TGI (HOP-92 NSCLC) was 2180 nM, the GI50 (UO-31 renal) was 1160 nM and the TGI (UO-31 renal) was 2440 nM. For the same molecule, the GI50 (DU-145 prostate) was 1540 nM, the TGI (DU-145 prostate) was 3000 nM and the GI50 (MDA-MB-435) was 873 nM. For the same molecule, the TGI (MDA-MB-435) was 2240 nM, the GI50 (CAKI-1 renal) was 1490 nM and the TGI (CAKI-1 renal) was 2850 nM. The GI50 (UACC-62 melanoma) was 1720 nM, the TGI (UACC-62 melanoma) was 3260 nM and the GI50 (BT-549 breast) was 1590 nM. The TGI (BT-549 breast) was 3060 nM, the GI50 (SNB-75 CNS) was 1250 nM and the TGI (SNB-75 CNS) was 2540 nM. It also gave a GI50 (SK-OV-3 ovarian) of 1770 nM and a TGI (SK-OV-3 ovarian) of 3260 nM.
With `CCC1(c2ccc(N3C(=O)c4ccccc4C3=O)cc2)CCC(=O)NC1=O` (centres undefined) the TGI (SW-620 colon) was > 10000 nM, the TGI (A549 NSCLC) was > 10000 nM and the TGI (PC-3 prostate) was > 10000 nM. For the same molecule, the TGI (RXF 393 renal) was > 10000 nM, the TGI (SF-539 CNS) was > 10000 nM and the TGI (U251 CNS) was > 10000 nM. For the same molecule, the TGI (SK-MEL-5 melanoma) was > 10000 nM, the TGI (SN12C renal) was > 10000 nM and the TGI (HT29 colon) was > 10000 nM. The TGI (KM12 colon) was > 10000 nM, the TGI (IGROV1 ovarian) was > 10000 nM and the TGI (NCI-H23 lung) was > 10000 nM. For the same molecule, the TGI (OVCAR-8 ovarian) was > 10000 nM, the TGI (OVCAR-4 ovarian) was > 10000 nM and the TGI (ACHN renal) was > 10000 nM. The TGI (HOP-92 NSCLC) was > 10000 nM, the TGI (UO-31 renal) was > 10000 nM and the TGI (MDA-MB-231 breast) was > 10000 nM. For the same molecule, the TGI (SNB-19 CNS) was > 10000 nM, the TGI (DU-145 prostate) was > 10000 nM and the TGI (SF-268 CNS) was > 10000 nM. For the same molecule, the TGI (OVCAR-5 ovarian) was > 10000 nM, the TGI (HCT-15 colon) was > 10000 nM and the TGI (NCI/ADR-RES ovarian) was > 10000 nM. The TGI (SF-295 CNS) was > 10000 nM, the TGI (NCI-H226 lung) was > 10000 nM and the TGI (COLO 205 colon) was > 10000 nM. The TGI (MDA-MB-435) was > 10000 nM, the TGI (CAKI-1 renal) was > 10000 nM and the TGI (M14 melanoma) was > 10000 nM. For the same molecule, the TGI (SK-MEL-28 melanoma) was > 10000 nM, the TGI (EKVX NSCLC) was > 10000 nM and the TGI (TK-10 renal) was > 10000 nM. The TGI (OVCAR-3 ovarian) was > 10000 nM, the TGI (SNB-75 CNS) was > 10000 nM and the TGI (HCT-116 colon) was > 10000 nM.
`O=c1c2cc(F)ccc2sc2c(Nc3ccncc3)nc3ccccc3c12` was tested, and the GI50 (HCC-2998 colon) was 2670 nM, the TGI (HCC-2998 colon) was 7970 nM and the GI50 (SW-620 colon) was 1500 nM. It also gave a TGI (SW-620 colon) of 3160 nM, a GI50 (MALME-3M melanoma) of 1740 nM and a TGI (MALME-3M melanoma) of 3420 nM. It also gave a GI50 (UACC-257 melanoma) of 2340 nM, a TGI (UACC-257 melanoma) of 6170 nM and a GI50 (RXF 393 renal) of 1700 nM. It also gave a TGI (RXF 393 renal) of 3410 nM, a GI50 (SF-539 CNS) of 1720 nM and a TGI (SF-539 CNS) of 3290 nM. For the same molecule, the GI50 (NCI-H460 lung) was 1770 nM, the TGI (NCI-H460 lung) was 3620 nM and the GI50 (RPMI-8226 leukemia) was 1750 nM. For the same molecule, the TGI (RPMI-8226 leukemia) was 4430 nM, the GI50 (SK-MEL-5 melanoma) was 7290 nM and the TGI (SK-MEL-5 melanoma) was 28200 nM. It also gave a GI50 (A498 renal) of 1040 nM, a TGI (A498 renal) of 2640 nM and a GI50 (SN12C renal) of 2160 nM. The TGI (SN12C renal) was 5930 nM, the GI50 (HT29 colon) was 1880 nM and the TGI (HT29 colon) was 3730 nM. The GI50 (KM12 colon) was 1870 nM, the TGI (KM12 colon) was 3930 nM and the GI50 (IGROV1 ovarian) was 1550 nM. For the same molecule, the TGI (IGROV1 ovarian) was 5550 nM, the GI50 (786-0 renal) was 1760 nM and the TGI (786-0 renal) was 3390 nM. For the same molecule, the GI50 (NCI-H23 lung) was 1710 nM, the TGI (NCI-H23 lung) was 3800 nM and the GI50 (OVCAR-8 ovarian) was 1780 nM. It also gave a TGI (OVCAR-8 ovarian) of 4250 nM, a GI50 (OVCAR-4 ovarian) of 1700 nM and a TGI (OVCAR-4 ovarian) of 3530 nM. It also gave a GI50 (NCI-H522 lung) of 1910 nM, a TGI (NCI-H522 lung) of 4820 nM and a GI50 (ACHN renal) of 1550 nM. For the same molecule, the TGI (ACHN renal) was 3130 nM, the GI50 (UO-31 renal) was 1110 nM and the TGI (UO-31 renal) was 2500 nM. The GI50 (MDA-MB-231 breast) was 1300 nM, the TGI (MDA-MB-231 breast) was 2670 nM and the GI50 (DU-145 prostate) was 2490 nM. It also gave a TGI (DU-145 prostate) of 6270 nM, a GI50 (SF-268 CNS) of 1910 nM and a TGI (SF-268 CNS) of 4560 nM. For the same molecule, the GI50 (OVCAR-5 ovarian) was 1660 nM, the TGI (OVCAR-5 ovarian) was 3110 nM and the GI50 (HCT-15 colon) was 1650 nM. It also gave a TGI (HCT-15 colon) of 3320 nM, a GI50 (NCI/ADR-RES ovarian) of 1940 nM and a TGI (NCI/ADR-RES ovarian) of 4470 nM. It also gave a GI50 (SF-295 CNS) of 4120 nM, a TGI (SF-295 CNS) of 26700 nM and a GI50 (NCI-H226 lung) of 14500 nM. It also gave a TGI (NCI-H226 lung) of 47800 nM, a GI50 (COLO 205 colon) of 1700 nM and a TGI (COLO 205 colon) of 3940 nM. The GI50 (CCRF-CEM leukemia) was 860 nM, the TGI (CCRF-CEM leukemia) was 2920 nM and the GI50 (MDA-MB-435) was 1900 nM. It also gave a TGI (MDA-MB-435) of 3670 nM, a GI50 (SK-MEL-2 melanoma) of 11200 nM and a TGI (SK-MEL-2 melanoma) of 26500 nM. For the same molecule, the GI50 (CAKI-1 renal) was 1530 nM, the TGI (CAKI-1 renal) was 3840 nM and the GI50 (HL-60(TB) leukemia) was 13700 nM. It also gave a TGI (HL-60(TB) leukemia) of 39800 nM, a GI50 (UACC-62 melanoma) of 1790 nM and a TGI (UACC-62 melanoma) of 3740 nM. The GI50 (M14 melanoma) was 1570 nM, the TGI (M14 melanoma) was 3010 nM and the GI50 (BT-549 breast) was 3310 nM. It also gave a TGI (BT-549 breast) of 16700 nM, a GI50 (SK-MEL-28 melanoma) of 1990 nM and a TGI (SK-MEL-28 melanoma) of 3840 nM. The GI50 (OVCAR-3 ovarian) was 1840 nM, the TGI (OVCAR-3 ovarian) was 3880 nM and the GI50 (SNB-75 CNS) was 1100 nM. It also gave a TGI (SNB-75 CNS) of 3640 nM, a GI50 (SK-OV-3 ovarian) of 14200 nM and a TGI (SK-OV-3 ovarian) of 34400 nM. The GI50 (HCT-116 colon) was 1450 nM and the TGI (HCT-116 colon) was 3130 nM.
